Data as given in ChEMBL document CHEMBL3879881, “Substituted pyrazolyl compounds for the treatment of inflammation” (2005).

Target: T1, Inhibitor of nuclear factor kappa-B kinase subunit beta (Homo sapiens, UniProt O14920)
T1 sequence (O14920 whole entry): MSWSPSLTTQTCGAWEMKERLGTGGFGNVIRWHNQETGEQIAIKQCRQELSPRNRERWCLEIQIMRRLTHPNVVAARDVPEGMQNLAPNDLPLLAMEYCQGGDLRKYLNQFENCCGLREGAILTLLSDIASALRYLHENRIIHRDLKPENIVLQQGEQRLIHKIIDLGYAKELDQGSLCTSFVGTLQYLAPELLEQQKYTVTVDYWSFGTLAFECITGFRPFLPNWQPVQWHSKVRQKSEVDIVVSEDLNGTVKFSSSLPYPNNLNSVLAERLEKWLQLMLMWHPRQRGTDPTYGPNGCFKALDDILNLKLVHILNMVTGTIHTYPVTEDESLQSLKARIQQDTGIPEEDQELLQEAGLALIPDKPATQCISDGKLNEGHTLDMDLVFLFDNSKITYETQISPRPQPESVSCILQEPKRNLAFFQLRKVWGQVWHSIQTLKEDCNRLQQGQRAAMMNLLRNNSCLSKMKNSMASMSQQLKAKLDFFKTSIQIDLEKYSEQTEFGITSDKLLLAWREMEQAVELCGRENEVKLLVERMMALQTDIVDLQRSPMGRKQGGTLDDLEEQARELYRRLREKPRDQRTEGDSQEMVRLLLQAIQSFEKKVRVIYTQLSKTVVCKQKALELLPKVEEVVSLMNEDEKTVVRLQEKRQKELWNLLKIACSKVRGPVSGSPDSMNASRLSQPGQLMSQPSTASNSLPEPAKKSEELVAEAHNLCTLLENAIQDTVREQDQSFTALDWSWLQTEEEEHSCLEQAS
Assay: Inhibition of human recombinant C-terminal FLAG-epitope-tagged IKK2 expressed in baculovirus using biotinylated IkappaBalpha peptide as substrate assessed as decrease in [gamma-33P]-ATP incorporation in substrate after 30 mins by scintillation counting method

Row | SMILES | IC50
1 | CN(C)CCOc1ccc(Cl)c(C(=O)Nc2ccc3c(c2)-c2c(c(C(N)=O)nn2-c2ccc4c(c2)OCO4)CC3)c1 | 1000 to 10000 nM
2 | CS(=O)(=O)c1ccc(-n2nc(C(N)=O)c3c2-c2cc(NC(=O)C4CCC4)ccc2CC3)cc1 | 1000 to 10000 nM
3 | COc1cccc(C(=O)Nc2ccc3c(c2)-c2c(c(C(N)=O)nn2-c2ccc(S(C)(=O)=O)cc2)CC3)c1 | 1000 to 10000 nM
4 | C[S+]([O-])c1ccc(Cl)c(C(=O)Nc2ccc3c(c2)-c2c(c(C(N)=O)nn2-c2ccc4c(c2)OCO4)CC3)c1 (centres undefined) | ≤ 1000 nM
5 | CS(=O)(=O)c1ccc(-n2nc(C(N)=O)c3c2-c2cc(NC(=O)[C@@H](N)Cc4c[nH]cn4)ccc2CC3)cc1 | 1000 to 10000 nM
6 | CS(=O)(=O)c1ccc(-n2nc(C(N)=O)c3c2-c2cc(NC(=O)c4cnccc4Cl)ccc2CC3)cc1 | 1000 to 10000 nM
7 | Cc1nnsc1C(=O)Nc1ccc2c(c1)-c1c(c(C(N)=O)nn1-c1ccc3c(c1)OCO3)CC2 | 1000 to 10000 nM
8 | NC(=O)c1nn(-c2ccc(S(N)(=O)=O)cc2)c2c1CCc1ccc(NS(=O)(=O)c3ccccc3Cl)cc1-2 | 10000 to 100000 nM
9 | Cc1cccc(C(=O)Nc2ccc3c(c2)-c2c(c(C(N)=O)nn2-c2ccc(S(C)(=O)=O)cc2)CC3)c1 | 1000 to 10000 nM
10 | NC(=O)c1nn(-c2ccc(S(N)(=O)=O)cc2)c2c1CCc1ccc(NC(=O)c3ccccc3Br)cc1-2 | ≤ 1000 nM
11 | CSc1ccccc1C(=O)Nc1ccc2c(c1)-c1c(c(C(N)=O)nn1-c1ccc(S(C)(=O)=O)cc1)CC2 | 1000 to 10000 nM
12 | Cc1cccc(S(=O)(=O)Nc2ccc3c(c2)-c2c(c(C(N)=O)nn2-c2ccc(S(N)(=O)=O)cc2)CC3)c1 | 10000 to 100000 nM
13 | CS(=O)(=O)c1ccc(-n2nc(C(N)=O)c3c2-c2cc(NC(=O)c4cc(Cl)ccc4N)ccc2CC3)cc1 | 1000 to 10000 nM
14 | NC(=O)c1nn(-c2ccc(S(N)(=O)=O)cc2)c2c1CCc1ccc(NC(=O)c3ccccc3F)cc1-2 | ≤ 1000 nM
15 | CS(=O)(=O)Nc1ccc2c(c1)-c1c(c(C(N)=O)nn1-c1ccc(F)cc1)CC2 | 1000 to 10000 nM
16 | NC(=O)c1nn(-c2ccc3c(c2)OCO3)c2c1CCc1ccc(NC(=O)c3cc(Cl)ncc3Cl)cc1-2 | ≤ 1000 nM
17 | CN1CCN(c2ccc(Cl)c(C(=O)Nc3ccc4c(c3)-c3c(c(C(N)=O)nn3-c3ccc(S(C)(=O)=O)cc3)CC4)c2)CC1 | < 1000 nM
18 | N#Cc1cccc(C(=O)Nc2ccc3c(c2)-c2c(c(C(N)=O)nn2-c2ccc(S(N)(=O)=O)cc2)CC3)c1 | ≤ 1000 nM
19 | CN(C)CC(=O)Nc1ccc(C(=O)Nc2ccc3c(c2)-c2c(c(C(N)=O)nn2-c2ccc4c(c2)OCO4)CC3)c(Cl)c1 | 1000 to 10000 nM
20 | NC(=O)c1nn(-c2ccc(S(N)(=O)=O)cc2)c2c1CCc1ccc(NC(=O)c3c(Cl)cccc3Cl)cc1-2 | ≤ 1000 nM
21 | NC(=O)c1nn(-c2ccc(F)cc2)c2c1CCc1ccc(NC(=O)c3cc(Cl)ncc3Cl)cc1-2 | ≤ 1000 nM
22 | Cc1ncccc1C(=O)Nc1ccc2c(c1)-c1c(c(C(N)=O)nn1-c1ccc3c(c1)OCO3)CC2 | 1000 to 10000 nM
23 | CS(=O)(=O)c1ccc(-n2nc(C(N)=O)c3c2-c2cc(NC(=O)c4cc(S(C)(=O)=O)ccc4Cl)ccc2CC3)cc1 | ≤ 1000 nM

Row | SMILES | IC50
24 | NC(=O)c1nn(-c2ccc3c(c2)OCO3)c2c1CCc1ccc(NC(=O)c3ccoc3)cc1-2 | 1000 to 10000 nM
25 | CS(=O)(=O)c1ccc(-n2nc(C(N)=O)c3c2-c2cc(NC(=O)Cc4ccccc4)ccc2CC3)cc1 | 1000 to 10000 nM
26 | C[S+]([O-])c1ccc(Cl)c(C(=O)Nc2ccc3c(c2)-c2c(c(C(N)=O)nn2-c2ccc(S(C)(=O)=O)cc2)CC3)c1 (centres undefined) | ≤ 1000 nM
27 | NC(=O)c1nn(-c2ccc(S(N)(=O)=O)cc2)c2c1CCc1ccc(NC(=O)c3cccnc3)cc1-2 | ≤ 1000 nM
28 | NC(=O)c1nn(-c2ccc(S(N)(=O)=O)cc2)c2c1CCc1ccc(NC(=O)c3cccnc3Cl)cc1-2 | ≤ 1000 nM
29 | Cc1c(O)cccc1C(=O)Nc1ccc2c(c1)-c1c(c(C(N)=O)nn1-c1ccc(S(C)(=O)=O)cc1)CC2 | ≤ 1000 nM
30 | Cc1ccn2c(C)c(C(=O)Nc3ccc4c(c3)-c3c(c(C(N)=O)nn3-c3ccc(S(C)(=O)=O)cc3)CC4)nc2c1 | 1000 to 10000 nM
31 | CS(=O)(=O)c1ccc(-n2nc(C(N)=O)c3c2-c2cc(NC(=O)c4cc(N=[N+]=[N-])ccc4[N+](=O)O)ccc2CC3)cc1 | ≤ 1000 nM
32 | Cc1c(C(=O)Nc2ccc3c(c2)-c2c(c(C(N)=O)nn2-c2ccc(S(C)(=O)=O)cc2)CC3)cccc1[N+](=O)[O-] | 1000 to 10000 nM
33 | Cc1cccc(C(=O)Nc2ccc3c(c2)-c2c(c(C(N)=O)nn2-c2ccc(S(C)(=O)=O)cc2)CC3)c1C | 1000 to 10000 nM
34 | Cc1cccc(C(=O)Nc2ccc3c(c2)-c2c(c(C(N)=O)nn2-c2ccc(S(C)(=O)=O)cc2)CC3)c1[N+](=O)[O-] | 1000 to 10000 nM
35 | CC(=O)Oc1cccc(C(=O)Nc2ccc3c(c2)-c2c(c(C(N)=O)nn2-c2ccc(S(C)(=O)=O)cc2)CC3)c1C | 1000 to 10000 nM
36 | N#Cc1ccc(C(=O)Nc2ccc3c(c2)-c2c(c(C(N)=O)nn2-c2ccc4c(c2)OCO4)CC3)cc1 | 1000 to 10000 nM
37 | NC(=O)c1nn(-c2ccc(S(N)(=O)=O)cc2)c2c1CCc1ccc(NS(=O)(=O)c3cccc(Cl)c3)cc1-2 | 1000 to 10000 nM
38 | NC(=O)c1nn(-c2ccc(S(N)(=O)=O)cc2)c2c1CCc1ccc(NS(=O)(=O)c3cccc(Br)c3)cc1-2 | 1000 to 10000 nM
39 | C[S+]([O-])c1ccc(Cl)c(C(=O)Nc2ccc3c(c2)-c2c(c(C(N)=O)nn2-c2ccc(F)cc2)CC3)c1 (centres undefined) | ≤ 1000 nM
40 | Cc1ccccc1C(=O)Nc1ccc2c(c1)-c1c(c(C(N)=O)nn1-c1ccc3c(c1)OCO3)CC2 | 1000 to 10000 nM
41 | CSc1ncc(Cl)c(C(=O)Nc2ccc3c(c2)-c2c(c(C(N)=O)nn2-c2ccc4c(c2)OCO4)CC3)n1 | ≤ 1000 nM
42 | CS(=O)(=O)c1ccc(-n2nc(C(N)=O)c3c2-c2cc(N)ccc2CC3)cc1 | 1000 to 10000 nM
43 | COc1ccccc1C(=O)Nc1ccc2c(c1)-c1c(c(C(N)=O)nn1-c1ccc(S(N)(=O)=O)cc1)CC2 | 10000 to 100000 nM
44 | NC(=O)c1nn(-c2ccc(S(N)(=O)=O)cc2)c2c1CCc1ccc(NC(=O)c3ccccc3C(F)(F)F)cc1-2 | ≤ 1000 nM
45 | NC(=O)c1nn(-c2ccc3c(c2)OCO3)c2c1CCc1ccc(NC(=O)c3cccc(O)n3)cc1-2 | 1000 to 10000 nM
46 | NC(=O)c1nn(-c2ccc(F)cc2)c2c1CCc1ccc(NC(=O)c3ccncc3)cc1-2 | 1000 to 10000 nM

Row | SMILES | IC50
47 | NC(=O)c1nn(-c2ccc3c(c2)OCO3)c2c1CCc1ccc(NC(=O)c3ccccc3OC(F)(F)F)cc1-2 | 1000 to 10000 nM
48 | NC(=O)c1nn(-c2ccc(F)cc2)c2c1CCc1ccc(NC(=O)c3cc4c(cc3Cl)OCO4)cc1-2 | ≤ 1000 nM
49 | COc1cccc(CC(=O)Nc2ccc3c(c2)-c2c(c(C(N)=O)nn2-c2ccc(S(N)(=O)=O)cc2)CC3)c1 | 1000 to 10000 nM
50 | COc1ccc([N+](=O)[O-])c(C(=O)Nc2ccc3c(c2)-c2c(c(C(N)=O)nn2-c2ccc4c(c2)OCO4)CC3)c1 | 1000 to 10000 nM
51 | CN1CCN(c2ccc(Cl)c(C(=O)Nc3ccc4c(c3)-c3c(c(C(N)=O)nn3-c3ccc5c(c3)OCO5)CC4)c2)CC1 | ≤ 1000 nM
52 | NC(=O)c1nn(-c2ccc(S(N)(=O)=O)cc2)c2c1CCc1ccc(NC(=O)c3cccc(Br)c3)cc1-2 | ≤ 1000 nM
53 | NC(=O)c1nn(-c2ccc3c(c2)OCO3)c2c1CCc1ccc(NC(=O)c3nc(Cl)ccc3Cl)cc1-2 | 1000 to 10000 nM
54 | NC(=O)c1nn(-c2ccc3c(c2)OCO3)c2c1CCc1ccc(NC(=O)c3cc[n+]([O-])cc3)cc1-2 | 1000 to 10000 nM
55 | COc1ccc(CNc2ncccc2C(=O)Nc2ccc3c(c2)-c2c(c(C(N)=O)nn2-c2ccc4c(c2)OCO4)CC3)cc1 | 10000 to 100000 nM
56 | NC(=O)c1nn(-c2ccc(S(N)(=O)=O)cc2)c2c1CCc1ccc(NC(=O)c3ccccc3OC(F)(F)F)cc1-2 | ≤ 1000 nM
57 | NC(=O)c1nn(-c2ccc(S(N)(=O)=O)cc2)c2c1CCc1ccc(NC(=O)c3cccc(Cl)c3)cc1-2 | ≤ 1000 nM
58 | CC(=O)c1ccc(C(=O)Nc2ccc3c(c2)-c2c(c(C(N)=O)nn2-c2ccc4c(c2)OCO4)CC3)cc1 | 1000 to 10000 nM
59 | Cc1ccccc1C(=O)Nc1ccc2c(c1)-c1c(c(C(N)=O)nn1-c1ccc(S(N)(=O)=O)cc1)CC2 | ≤ 1000 nM
60 | NC(=O)c1nn(-c2ccc(S(N)(=O)=O)cc2)c2c1CCc1ccc(NC(=O)c3cccc(Cl)c3Cl)cc1-2 | ≤ 1000 nM
61 | NC(=O)c1nn(-c2ccc3c(c2)OCO3)c2c1CCc1ccc(NC(=O)c3ccc(Cl)c(N)c3)cc1-2 | 1000 to 10000 nM
62 | NC(=O)c1nn(-c2ccc3c(c2)OCO3)c2c1CCc1ccc(NC(=O)c3cc(Cl)cnc3Cl)cc1-2 | ≤ 1000 nM
63 | CS(=O)(=O)c1ccc(-n2nc(C(N)=O)c3c2-c2cc(NC(=O)c4ccccc4N)ccc2CC3)cc1 | 1000 to 10000 nM
64 | COc1cccc(C(=O)Nc2ccc3c(c2)-c2c(c(C(N)=O)nn2-c2ccc(S(N)(=O)=O)cc2)CC3)c1 | ≤ 1000 nM
65 | NC(=O)c1nn(-c2ccc(S(N)(=O)=O)cc2)c2c1CCc1ccc(NC(=O)c3ccccc3Cl)cc1-2 | ≤ 1000 nM
66 | CS(=O)(=O)c1ccc(-n2nc(C(N)=O)c3c2-c2cc(NC(=O)c4cn[nH]c4)ccc2CC3)cc1 | 1000 to 10000 nM
67 | NC(=O)c1nn(-c2ccc3c(c2)OCO3)c2c1CCc1ccc(NC(=O)c3cccnc3N)cc1-2 | 1000 to 10000 nM
68 | NC(=O)c1nn(-c2ccc3c(c2)OCO3)c2c1CCc1ccc(NC(=O)c3cc(N4CCNCC4)ncc3Cl)cc1-2 | ≤ 1000 nM
69 | CN1CCN(c2cc(C(=O)Nc3ccc4c(c3)-c3c(c(C(N)=O)nn3-c3ccc5c(c3)OCO5)CC4)c(Cl)cn2)CC1 | ≤ 1000 nM
